# Laboratory results published in patent US12303530B2, “Combination therapy of cycloserine and lithium for the treatment of depression” (NEURORIVE INC, priority 2019, dated 2025).
# System: mice (C57BL6)
# Test: forced swimming test (FST)
# Assay type: in vivo, mouse
# Conditions: FST in an hour after administration, immobility time measured for the last 4 minutes of 6 minutes
# Method: In order to test an effect of reducing depression depending on administration of the pharmaceutical composition of the present invention, mice were subjected to a forced swimming test (FST). The FST, which is to measure a coping strategy for acute stress that inevitably occurs, is an animal behavioral experiment commonly used to measure antidepressant effects. To confirm the effect of reducing depression by combined administration of D-cycloserine (DCS) and lithium, 10 ml/kg of the preparation was administered to all groups of mice (C57BL6). […] After 1 hour, the forced swimming test (FST) that measures depression-like behavior was performed on the mice. Specifically, each group of mice was individually placed in a 3 L Pyrex beaker (13 cm in diameter, 24 cm in height), and the beakers were filled with 27.5±1.5° C. of water up to a depth of 9 cm. All mice were forced to swim for 6 minutes, and immobility time was measured for the last 4 minutes of the experiment. The immobility time is defined as the […] time taken while the mouse is floating without struggling or taking only the movement required for keeping the mouse's head above the water surface.
row,Structure (SMILES),"immobility in forced swimming test, compared to the control group administered with the vehicle"
1,"N[C@@H]1CONC1=O [DCS, D-cycloserine]",did not show statistical significance
2,"O=C([O-])[O-].[Li+].[Li+] [Li2CO3, Lithium carbonate]",did not show statistical significance
